Data as given in ChEMBL document CHEMBL3217612, “Progress on lamellarins” (Medchemcomm, 2011).

How the values were obtained:
[1] = test system: HepG2; test: Cytotoxicity against human HepG2 cells after 48 hrs by XTT assay; assay type: functional, cell-based; details: HepG2, 48 h
[2] = test system: MRC5; test: Cytotoxicity against human MRC5 cells after 48 hrs by XTT assay; assay type: cell-based; details: MRC5, 48 h
[3] = test system: P388; test: Cytotoxicity against mouse P388 cells after 48 hrs by XTT assay; assay type: functional, cell-based; details: P388, 48 h
[4] = test system: HeLa; test: Cytotoxicity against human HeLa cells after 48 hrs by XTT assay; assay type: functional, cell-based
[5] = test system: HL-60; test: Cytotoxicity against human HL60 cells after 48 hrs by XTT assay; assay type: functional, cell-based; details: HL-60, 48 h
[6] = test system: KB; test: Cytotoxicity against human KB cells after 48 hrs by XTT assay; assay type: functional, cell-based
[7] = Cytotoxicity against human HCC-S102 cells after 48 hrs by XTT assay; assay type: functional, cell-based; details: HCC-S102, 48 h
[8] = test system: T47D; test: Cytotoxicity against human T47D cells after 48 hrs by XTT assay; assay type: functional, cell-based
[9] = test system: H69AR; test: Cytotoxicity against human H69AR cells after 48 hrs by XTT assay; assay type: functional, cell-based
[10] = test system: MDA-MB-231; test: Cytotoxicity against human MDA-MB-231 cells after 48 hrs by XTT assay; assay type: functional, cell-based; details: MDA-MB-231, 48 h
[11] = Cytotoxicity against human HuCCa1 cells after 48 hrs by XTT assay; assay type: functional, cell-based; details: HuCC-A1, 48 h
[12] = test system: A549; test: Cytotoxicity against human A549 cells after 48 hrs by XTT assay; assay type: functional, cell-based; details: A549, 48 h
[13] = Cytotoxicity against human MOLT3 cells after 48 hrs by XTT assay; assay type: functional, cell-based; details: MOLT-3, 48 h

Row | SMILES | IC50 [1] | IC50 [2] | IC50 [3] | IC50 [4] | IC50 [5] | IC50 [6] | IC50 [7] | IC50 [8] | IC50 [9] | IC50 [10] | IC50 [11] | IC50 [12] | IC50 [13]
1 | COc1ccc(-c2c3c4cc(OC)c(O)cc4oc(=O)c3n3ccc4cc(O)c(OC)cc4c23)cc1O | 20 nM | > 100000 nM | 80 nM | 40 nM | 40 nM | 60 nM | 2300 nM | 0.6 nM | 60 nM | 600 nM | 8 nM | 40 nM | –
2 | COc1cc(-c2c3c4cc(OC)c(O)cc4[nH]c(=O)c3n3ccc4cc(O)c(OC)cc4c23)ccc1O | 130 nM | – | – | – | – | – | – | – | – | – | 120 nM | 740 nM | 30 nM
3 | COc1cc2c(cc1O)oc(=O)c1c2c(-c2ccc(OC)c(OC)c2)c2c3cc(OC)c(O)cc3ccn21 | 10 nM | > 97400 nM | 80 nM | 80 nM | 40 nM | 80 nM | 2100 nM | 0.1 nM | 300 nM | 400 nM | 6 nM | 40 nM | –
4 | COc1cc(-c2c3c4cc(OC)c(O)cc4oc(=O)c3n3ccc4c(O)c(OC)c(OC)cc4c23)ccc1O | 20 nM | 13400 nM | 100 nM | 300 nM | 60 nM | 200 nM | 1900 nM | 9 nM | 300 nM | 100 nM | 60 nM | 40 nM | –
5 | COc1ccc(-c2c3c4cc(OC)c(O)cc4oc(=O)c3n3ccc4c(O)c(OC)c(OC)cc4c23)cc1O | 200 nM | 10100 nM | 300 nM | 90 nM | 200 nM | 80 nM | 1600 nM | 6 nM | 300 nM | 80 nM | 40 nM | 300 nM | –
6 | COc1cc2c(cc1O)oc(=O)c1c2c(-c2ccc(OC)c(OC)c2)c2c3cc(OC)c(OC)c(O)c3ccn21 | 100 nM | 25800 nM | 300 nM | 300 nM | 100 nM | 300 nM | 2100 nM | 6 nM | 2300 nM | 300 nM | 70 nM | 300 nM | –
7 | COc1cc(-c2c3c4cc(OC)c(O)cc4oc(=O)c3n3ccc4cc(O)c(OC)cc4c23)ccc1O [LAMELLARIN D] | 20 nM | 9200 nM | 100 nM | 60 nM | 40 nM | 40 nM | 3200 nM | 0.08 nM | 400 nM | 400 nM | 80 nM | 60 nM | 49 nM
